Test results published in ChEMBL document CHEMBL3351946, “Design and synthesis of potent antitumor water-soluble phenyl N-mustard-benzenealkylamide conjugates via a bioisostere approach” (Eur J Med Chem, 2014).
Active and inactive are the calls of the source. The calls are words filed in the database; no cut-off is given here.

Key:
[1] = tested on: PC-3; test: Antitumor activity against human PC3 cells xenografted in iv dosed nude mouse assessed as tumor growth inhibition; type: functional, organism-based
[2] = Terminal half life in Sprague-Dawley rat at 50 mg/kg, po; type: ADME, organism-based; set-up: dose 50 mg/kg, route oral; conditions: in vivo, read-out: beta t1/2 (converted)
[3] = Cell cycle arrest in human HCT116 cells assessed as accumulation at G2/M phase at 4 uM after 24 hrs by FACS flow cytometric analysis (reference value: 31.55 +/- 4.63%); type: functional, cell-based; conditions: HCT-116
[4] = Antitumor activity against human PC3 cells xenografted in nude mouse assessed as tumor growth inhibition at 40 mg/kg,iv administered every 2 days for 5 doses measured on day 21 relative to control; type: functional, PC-3
[5] = tested on: Mus musculus; test: Induction of apoptosis in HCT116 cells xenografted in nude mouse at 30 mg/kg, iv qd administered for 6 days measured 24 hrs post last dose by TUNEL assay; type: functional, organism-based; set-up: dose 30 mg/kg; conditions: HCT-116
[6] = Terminal half life in Sprague-Dawley rat at 5 mg/kg, iv; type: ADME, organism-based; set-up: dose 5 mg/kg, route intravenous; conditions: in vivo, read-out: beta t1/2 (converted)
[7] = Cell cycle arrest in human HCT116 cells assessed as accumulation at G1 phase at 1 uM after 72 hrs by FACS flow cytometric analysis (reference value: 76.29 +/- 2.65%); type: functional, cell-based; conditions: HCT-116
[8] = tested on: Mus musculus; test: Toxicity in nude mouse xenografted with human PC3 cells assessed as body weight loss at 40 mg/kg,iv administered every 2 days for 5 doses measured on day 16 relative to control; type: organism-based, PC-3; set-up: dose 40 mg/kg; conditions: in vivo, 48 h
[9] = Cell cycle arrest in human HCT116 cells assessed as accumulation at sub-G1 phase at 2 uM after 48 hrs by FACS flow cytometric analysis (reference value: 1.65 +/- 0.06%); type: functional, cell-based; conditions: HCT-116
[10] = tested on: HCT-116; test: Induction of apoptosis in human HCT116 cells assessed as caspase-3 cleavage at 1 to 4 uM after 24 hrs by Western blot analysis; type: functional, cell-based
[11] = Cytotoxicity against human H1299 cells assessed as growth inhibition after 72 hrs by Alamar Blue assay; type: functional, cell-based; conditions: NCI-H1299, 72 h
[12] = tested on: Mus musculus; test: Toxicity in iv dosed CD-1 (ICR) mouse assessed as hunch posture measured for 14 days; type: organism-based; conditions: in vivo, 336 h
[13] = tested on: Mus musculus; test: Toxicity in nude mouse xenografted with human PC3 cells assessed as change in body weight at 40 mg/kg,iv administered every 2 days for 5 doses measured on day 38 relative to control; type: organism-based, PC-3; set-up: dose 40 mg/kg; conditions: in vivo, 48 h
[14] = tested on: Mus musculus; test: Toxicity in CD-1 (ICR) mouse assessed as body weight loss at 75 to 105 mg/kg, iv measured on day 8; type: organism-based; set-up: dose 75-105 mg/kg, route intravenous; conditions: in vivo
[15] = Antitumor activity against human PC3 cells xenografted in nude mouse assessed as tumor growth inhibition at 30 mg/kg,iv qd administered for 6 days measured on day 38 relative to control; type: functional; conditions: PC-3, iv, read-out: TGI
[16] = Induction of pEGFP-N1 DNA (unknown origin) interstand crosslinking after 2 hrs by alkaline agarose gel shift assay
[17] = tested on: PC-3; test: Antitumor activity against human PC3 cells xenografted in nude mouse assessed as survival at 50 mg/kg,iv administered every 2 days for 5 doses; type: functional, organism-based; set-up: dose 50 mg/kg
[18] = tested on: Mus musculus; test: Toxicity in iv dosed CD-1 (ICR) mouse assessed as hypoactivity measured for 14 days; type: organism-based; conditions: in vivo, 336 h
[19] = tested on: Mus musculus; test: Toxicity in iv dosed CD-1 (ICR) mouse assessed as piloerection measured for 14 days; type: organism-based; conditions: in vivo, 336 h
[20] = tested on: Mus musculus; test: Toxicity in nude mouse xenografted with human HCT116 cells assessed as change in body weight at 30 mg/kg,iv qd administered for 6 days measured on day 31 relative to control; type: organism-based, HCT-116; set-up: dose 30 mg/kg; conditions: in vivo, 144 h
[21] = Cytotoxicity against human HCT116 cells assessed as growth inhibition after 72 hrs by Alamar Blue assay; type: functional, cell-based; conditions: HCT-116, 72 h
[22] = tested on: HCT-116; test: Induction of DNA interstand crosslinking in human HCT116 cells under aerobic condition assessed as decrease in tail moment at 0.5 to 1 uM preincubated for 1 hr followed by 20 Gy X-ray irradiation by comet assay; type: cell-based
[23] = Cytotoxicity against human H460 cells assessed as growth inhibition after 72 hrs by Alamar Blue assay; type: functional, cell-based; conditions: NCI-H460, 72 h
[24] = Cell cycle arrest in human HCT116 cells assessed as accumulation at sub-G1 phase at 1 uM after 48 hrs by FACS flow cytometric analysis (reference value: 1.65 +/- 0.06%); type: functional, cell-based; conditions: HCT-116
[25] = tested on: Mus musculus; test: Toxicity in iv dosed CD-1 (ICR) mouse assessed as swelling of cheek measured for 14 days; type: organism-based; conditions: in vivo, 336 h
[26] = tested on: Mus musculus; test: Toxicity in iv dosed CD-1 (ICR) mouse assessed as swelling of nose measured for 14 days; type: organism-based; conditions: in vivo, 336 h

Compound: CCN(CC)CC(=O)Nc1ccc(NC(=O)Nc2ccc(N(CCCl)CCCl)cc2)cc1
- TGI [1]: Dose-dependent effect
- half-life [2]: 60.6 min
- Activity [3]: 56.3%
- %max [4]: 68%
- Activity [5]: Active
- half-life [6]: 21.6 min
- Activity [7]: 54.9%
- %max [8]: -15%
- Activity [9]: 8.48%
- Activity [10]: Active
- IC50 [11]: 3.43 µM
- Activity [12]: Dose-dependent effect
- Activity [13]: -12%
- Activity [14]: Toxic
- inhibition in vivo at 30 mg/kg [15]: 16%
- Activity [16]: Dose-dependent effect
- Activity [17]: Active
- Activity [18]: Dose-dependent effect
- Activity [19]: Dose-dependent effect
- Activity [20]: 9%
- IC50 [21]: 820 nM
- Activity [22]: Active
- IC50 [23]: 930 nM
- Activity [24]: 9.86%
- Activity [25]: Dose-dependent effect
- Activity [26]: Dose-dependent effect
